Test results as given in US12655116B2, “Substituted isophthalic acid diamides” (Bayer Aktiengesellschaft, priority 2020, dated 2026).

Tests used:
[1] = tested on: ECHCG; assay: Pre-emergence herbicidal action against ECHCG; type: in vivo, Echinochloa crus-galli; settings: Echinochloa crus-galli, 504 h, 80 g/ha
Summary of the method: (§1)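 Sandy loam pots, seeds covered with soil, then surface-treated with WP or EC formulations at 600–800 l/ha water plus 0.2% wetting agent. Greenhouse, 3 weeks. Percent damage vs untreated controls.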

[2] = tested on: STEME; assay: Pre-emergence herbicidal action against STEME; type: in vivo, Stellaria media; settings: Stellaria media, 504 h; for pest or weed control at 80 g/ha: dosage 80 g/ha
Summary of the method: as §1

[3] = tested on: ALOMY; assay: Pre-emergence herbicidal action against ALOMY; type: in vivo, Alopecurus myosuroides; settings: Alopecurus myosuroides, 504 h, pre-emergence; for pest or weed control at 80 g/ha: scored visually after 3 weeks vs untreated controls (100% = plants have died, 0% = like control plants)
Summary of the method: as §1

[4] = tested on: DIGSA; assay: Post-emergence herbicidal action against DIGSA; type: in vivo, Digitaria sanguinalis; settings: Digitaria sanguinalis, 504 h
Summary of the method: (§2)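 Herbicidal action is a visual percentage rating (0% = as untreated control, 100% = plants dead) made roughly 3 weeks after treatment. Plants were grown in sandy loam in the greenhouse and treated at the one-leaf stage, 2 to 3 weeks post-sowing. Treatment was a foliar spray of wettable-powder or emulsion-concentrate formulations at 600 to 800 l/ha water plus 0.2% wetting agent.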

[5] = tested on: ECHCG; assay: Post-emergence herbicidal action against ECHCG; type: in vivo, Echinochloa crus-galli; settings: Echinochloa crus-galli, 504 h, dosage 20 g/ha
Summary of the method: as §2

[6] = tested on: ABUTH; assay: Post-emergence herbicidal action against ABUTH; type: in vivo, Abutilon theophrasti; settings: Abutilon theophrasti, 504 h, visual assessment about 3 weeks after treatment vs untreated controls; for pest or weed control at 5 g/ha: dosage 5 g/ha; for pest or weed control at 20 g/ha: dosage 20 g/ha
Summary of the method: as §2

[7] = tested on: AMARE; assay: Pre-emergence herbicidal action against AMARE; type: in vivo, Amaranthus retroflexus; settings: Amaranthus retroflexus, 504 h, scored visually after 3 weeks vs untreated controls, 100% = plants have died, 0% = like control plants
Summary of the method: as §1

[8] = tested on: STEME; assay: Post-emergence herbicidal action against STEME; type: in vivo, Stellaria media; settings: Stellaria media, 504 h; for pest or weed control at 5 g/ha: dosage 5 g/ha
Summary of the method: as §2

[9] = tested on: DIGSA; assay: Pre-emergence herbicidal action against DIGSA; type: in vivo, Digitaria sanguinalis; settings: Digitaria sanguinalis, 504 h; for pest or weed control at 80 g/ha: dosage 80 g/ha
Summary of the method: as §1

[10] = tested on: AVEFA; assay: Pre-emergence herbicidal action against AVEFA; type: in vivo, Avena fatua; settings: Avena fatua, 504 h, pre-emergence
Summary of the method: as §1

[11] = tested on: VERPE; assay: Pre-emergence herbicidal action against VERPE; type: in vivo, Veronica persica; settings: Veronica persica, 504 h
Summary of the method: as §1

[12] = tested on: AMARE; assay: Post-emergence herbicidal action against AMARE; type: in vivo, Amaranthus retroflexus; settings: Amaranthus retroflexus, 504 h, 20 g/ha, visual assessment about 3 weeks after treatment, 100% = plants have died, 0% = like control plants
Summary of the method: as §2

[13] = tested on: ABUTH; assay: Pre-emergence herbicidal action against ABUTH; type: in vivo, Abutilon theophrasti; settings: Abutilon theophrasti, 504 h; for pest or weed control at 80 g/ha: scored visually after 3 weeks vs untreated controls (100% = plants have died, 0% = like control plants)
Summary of the method: as §1

[14] = tested on: AVEFA; assay: Post-emergence herbicidal action against AVEFA; type: in vivo, Avena fatua; settings: Avena fatua, 504 h, 20 g/ha, visual assessment about 3 weeks after treatment, 100% = plants have died, 0% = like control plants
Summary of the method: as §2

[15] = tested on: HORMU; assay: Pre-emergence herbicidal action against HORMU; type: in vivo, Hordeum murinum; settings: Hordeum murinum, 504 h; 80 g/ha, pre-emergence
Text: Seeds of monocotyledonous and dicotyledonous weed plants and crop plants are laid out in sandy loam soil in wood-fiber pots and covered with soil. The compounds of the invention, formulated in the form of wettable powders (WP) or as emulsion concentrates (EC), are then applied to the surface of the covering soil in the form of an aqueous suspension or emulsion at a water application rate equivalent to 600 to 800 l/ha, with addition of 0.2% wetting agent. After the treatment, the pots are placed in a greenhouse and kept under good growth conditions for the trial plants. The damage to the test plants is scored visually after a test period of 3 weeks by comparison with untreated controls (herbicidal activity in percent (%): 100% activity=the plants have died, 0% activity=like control plants). […] The tables below illustrate, in an illustrative manner, the post-emergence herbicidal action of the compounds of the invention, the herbicidal activity being stated in percent.

[16] = tested on: ALOMY; assay: Post-emergence herbicidal action against ALOMY; type: in vivo, Alopecurus myosuroides; settings: Alopecurus myosuroides, 504 h, dosage 20 g/ha, visual assessment about 3 weeks after treatment vs untreated controls
Summary of the method: as §2

[17] = tested on: SETVI; assay: Pre-emergence herbicidal action against SETVI; type: in vivo, Setaria viridis; settings: Setaria viridis, 504 h; for pest or weed control at 80 g/ha: dosage 80 g/ha
Summary of the method: as §1

[18] = tested on: SETVI; assay: Post-emergence herbicidal action against SETVI; type: in vivo, Setaria viridis; settings: Setaria viridis, 504 h; for pest or weed control at 20 g/ha: dosage 20 g/ha
Summary of the method: as §2

[19] = tested on: MATIN; assay: Pre-emergence herbicidal action against MATIN; type: in vivo, Matricaria inodora; settings: Tripleurospermum inodorum, 504 h; for pest or weed control at 80 g/ha: dosage 80 g/ha
Summary of the method: as §1

[20] = tested on: VERPE; assay: Post-emergence herbicidal action against VERPE; type: in vivo, Veronica persica; settings: Veronica persica, 504 h, 20 g/ha
Summary of the method: as §2

[21] = tested on: POLCO; assay: Pre-emergence herbicidal action against POLCO; type: in vivo, Polygonum convolvulus; settings: Fallopia convolvulus, 504 h
Summary of the method: as §1

[22] = tested on: PHBPU; assay: Post-emergence herbicidal action against PHBPU; type: in vivo, Pharbitis purpurea; settings: Ipomoea purpurea, 504 h
Summary of the method: as §2

[23] = tested on: VIOTR; assay: Post-emergence herbicidal action against VIOTR; type: in vivo, Viola tricolor; settings: Viola tricolor, 504 h
Summary of the method: as §2

[24] = tested on: MATIN; assay: Post-emergence herbicidal action against MATIN; type: in vivo, Matricaria inodora; settings: Tripleurospermum inodorum, 504 h, dosage 20 g/ha
Summary of the method: as §2

[25] = tested on: VIOTR; assay: Pre-emergence herbicidal action against VIOTR; type: in vivo, Viola tricolor; settings: Viola tricolor, 504 h
Summary of the method: as §1

[26] = 20 g/ha, scored visually after 3 weeks, 100% = plants have died, 0% = like control plants

## CNC(=O)c1c(Cl)ccc(C(=O)Nc2nnnn2C)c1C [Example 1-4]
[1]
  pest or weed control at 80 g/ha: 90%
[2]
  pest or weed control at 80 g/ha: 90%
[3]
  pest or weed control at 80 g/ha: 80%
[4]
  pest or weed control at 5 g/ha: 80%
  pest or weed control at 20 g/ha: 90%
[5]
  pest or weed control at 20 g/ha: 100%
[6]
  pest or weed control at 5 g/ha: 90%
  pest or weed control at 20 g/ha: 90%
[7]
  pest or weed control at 20 g/ha: 90%
  pest or weed control at 80 g/ha: 100%
[8]
  pest or weed control at 20 g/ha: 90%
  pest or weed control at 5 g/ha: 80%
[9]
  pest or weed control at 80 g/ha: 100%
[10]
  pest or weed control at 80 g/ha: 90%
[11]; dosage 20 g/ha
  pest or weed control at 20 g/ha: 80%
[11]; dosage 80 g/ha
  pest or weed control at 80 g/ha: 90%
[12]
  pest or weed control at 20 g/ha: 90%
[13]
  pest or weed control at 80 g/ha: 100%
[14]
  pest or weed control at 20 g/ha: 80%
[15]
  pest or weed control at 80 g/ha: 80%
[16]
  pest or weed control at 20 g/ha: 80%
[17]
  pest or weed control at 80 g/ha: 100%
[18]
  pest or weed control at 20 g/ha: 80%
[19]
  pest or weed control at 80 g/ha: 100%

## CCNC(=O)c1c(C(F)(F)F)ccc(C(=O)Nc2nnnn2C)c1Br [Example 1-208]
[1]
  pest or weed control at 80 g/ha: 100%
[2]; dosage 20 g/ha
  pest or weed control at 20 g/ha: 100%
[2]
  pest or weed control at 80 g/ha: 100%
[20]
  pest or weed control at 20 g/ha: 80%
[21]; dosage 20 g/ha
  pest or weed control at 20 g/ha: 80%
[21]; dosage 80 g/ha
  pest or weed control at 80 g/ha: 90%
[3]
  pest or weed control at 80 g/ha: 100%
[3]; [26]
  pest or weed control at 20 g/ha: 80%
[4]
  pest or weed control at 5 g/ha: 80%
  pest or weed control at 20 g/ha: 90%
[22]; dosage 5 g/ha
  pest or weed control at 5 g/ha: 80%
[22]; dosage 20 g/ha
  pest or weed control at 20 g/ha: 90%
[6]
  pest or weed control at 5 g/ha: 80%
  pest or weed control at 20 g/ha: 90%
[7]
  pest or weed control at 20 g/ha: 100%
  pest or weed control at 80 g/ha: 100%
[23]; 5 g/ha
  pest or weed control at 5 g/ha: 80%
[23]; 20 g/ha
  pest or weed control at 20 g/ha: 100%
[8]
  pest or weed control at 20 g/ha: 90%
  pest or weed control at 5 g/ha: 90%
[24]
  pest or weed control at 20 g/ha: 80%
[9]; dosage 20 g/ha
  pest or weed control at 20 g/ha: 100%
[9]
  pest or weed control at 80 g/ha: 100%
[10]
  pest or weed control at 80 g/ha: 100%
[10]; [26]
  pest or weed control at 20 g/ha: 80%
[12]
  pest or weed control at 20 g/ha: 100%
[25]; dosage 20 g/ha
  pest or weed control at 20 g/ha: 100%
[25]; dosage 80 g/ha
  pest or weed control at 80 g/ha: 100%
[13]
  pest or weed control at 80 g/ha: 100%
[13]; dosage 20 g/ha, scored visually after 3 weeks vs untreated controls, 100% = plants have died, 0% = like control plants, read-out: Pre-emergence action against ABUTH (herbicidal activity in percent)
  pest or weed control at 20 g/ha: 100%
[14]
  pest or weed control at 20 g/ha: 90%
[15]
  pest or weed control at 80 g/ha: 80%
[16]
  pest or weed control at 20 g/ha: 80%
[17]; dosage 20 g/ha
  pest or weed control at 20 g/ha: 100%
[17]
  pest or weed control at 80 g/ha: 100%
[18]; dosage 5 g/ha
  pest or weed control at 5 g/ha: 80%
[18]
  pest or weed control at 20 g/ha: 80%
[19]; dosage 20 g/ha
  pest or weed control at 20 g/ha: 90%
[19]
  pest or weed control at 80 g/ha: 100%
